Consider 14 compounds from PubChem BioAssay (NCI).

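Exposure lasted 48 hours, with cells grown in 96-well plates and compounds tested at five concentrations. Definition used: TGI = concentration required for complete inhibition of growth.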 Where a SMILES comes first, the peptide text is derived from it. [ ]: non-standard residue; d: D form. The star is where a group is joined. X28 = COC1=CC(=O)N(C(=O)[C@@H](O*)C(C)C)[C@H]1Cc1ccccc1; NMeL = CN[C@@H](CC(C)C)C(=O)O; Cbz = O=C(OCc1ccccc1)*

Test systems include KM12 colon; SK-MEL-28 melanoma; OVCAR-3 ovarian; TK-10 renal; SF-295 CNS; COLO 205 colon; SR leukemia; SNB-19 CNS; OVCAR-4 ovarian; OVCAR-8 ovarian.
Assay in all cases: NCI-60 cell line screen, 48 h

In the case of `COc1ccc(CCN2CCOCC2)cc1`, the TGI with KM12 colon, in the assay with SK-MEL-28 melanoma, in the assay with OVCAR-3 ovarian, with TK-10 renal, in the assay on SF-295 CNS and with COLO 205 colon was greater than 100 µM each time. Besides, the TGI in the assay with SR leukemia and in the assay on SNB-19 CNS was greater than 100 µM each time.

Consider `FC(F)(F)c1nc2cc(SSc3cc4nc(C(F)(F)F)[nH]c4cc3Cl)c(Cl)cc2[nH]1`, for which the TGI in the assay with SK-MEL-28 melanoma, in the assay with OVCAR-3 ovarian, in the assay on TK-10 renal, with SF-295 CNS, in the assay on COLO 205 colon and with OVCAR-4 ovarian was greater than 100 µM throughout. The TGI in the assay on SNB-19 CNS and in the assay on OVCAR-8 ovarian was greater than 100 µM in each case.

Turning to `OC(C1CCCC1=N/N=C1/CCCC1C(O)(C(F)(F)Cl)C(F)(F)Cl)(C(F)(F)Cl)C(F)(F)Cl` (configuration not stated), the TGI in the assay on KM12 colon, in the assay with SK-MEL-28 melanoma, in the assay on OVCAR-3 ovarian, in the assay with TK-10 renal, with SF-295 CNS and in the assay on COLO 205 colon was greater than 10 µM each time. The TGI in the assay on OVCAR-4 ovarian, in the assay with SNB-19 CNS and in the assay with OVCAR-8 ovarian was greater than 10 µM in each case.

In the case of `Cc1cc(C)c(N)c(C)c1N`, the TGI with KM12 colon, with SK-MEL-28 melanoma, in the assay on OVCAR-3 ovarian, with TK-10 renal, in the assay on SF-295 CNS and in the assay on COLO 205 colon was greater than 100 µM in each case. Further, the TGI with SR leukemia, with SNB-19 CNS and in the assay with OVCAR-8 ovarian was greater than 100 µM throughout.

`CC(=O)C1C(=O)C(=O)N(c2ccc([N+](=O)[O-])cc2Cl)C1=O` (configuration not stated): the TGI with KM12 colon, in the assay on SK-MEL-28 melanoma, in the assay on OVCAR-3 ovarian, with TK-10 renal, in the assay on SF-295 CNS and in the assay with COLO 205 colon was greater than 100 µM in each case. Also, the TGI with OVCAR-4 ovarian, in the assay with SNB-19 CNS and in the assay with OVCAR-8 ovarian was greater than 100 µM throughout.

Consider `COC(=O)Nc1nc2ccc(NS(=O)(=O)c3ccc(F)cc3)cc2[nH]1`, for which the TGI in the assay with KM12 colon is 74.7 µM; in the assay on SK-MEL-28 melanoma, greater than 100 µM; with OVCAR-3 ovarian, 16.2 µM; in the assay with TK-10 renal, 87 µM; in the assay with SF-295 CNS, 70.4 µM; in the assay with COLO 205 colon, 37.8 µM. Moreover, the TGI with OVCAR-4 ovarian, in the assay on SNB-19 CNS and in the assay on OVCAR-8 ovarian was greater than 100 µM in each case.

Consider `CC[S+](C)c1ccc(-c2c3nc(c(-c4ccc([S+](C)CC)cc4)c4ccc([nH]4)c(-c4ccc([S+](C)CC)cc4)c4nc(c(-c5ccc([S+](C)CC)cc5)c5ccc2[nH]5)C=C4)C=C3)cc1` (configuration not stated), for which the TGI with KM12 colon, in the assay on SK-MEL-28 melanoma, in the assay on OVCAR-3 ovarian, with SF-295 CNS, in the assay on COLO 205 colon and in the assay with OVCAR-4 ovarian was greater than 100 µM throughout. Also, the TGI with SR leukemia was 87.5 µM; with SNB-19 CNS, greater than 100 µM; with OVCAR-8 ovarian it was greater than 100 µM.

On to `CCCCCCCCCCCCCCCCCCNC(=S)/N=C/c1c(O)cc(C)oc1=O`, for which the TGI was 36.3 µM in the assay on KM12 colon; greater than 100 µM in the assay on SK-MEL-28 melanoma; greater than 100 µM with OVCAR-3 ovarian; 35.9 µM in the assay on TK-10 renal; 64.7 µM with SF-295 CNS; greater than 100 µM in the assay on COLO 205 colon. The results for the TGI in the assay with OVCAR-4 ovarian, in the assay on SNB-19 CNS and in the assay with OVCAR-8 ovarian were 80 µM, 52.1 µM and 63.4 µM, respectively.

For `CC[C@@]1(O)C(=O)OCc2c1cc1n(c2=O)Cc2c-1nc1ccccc1c2/C=N\NC(=O)C(N)=O`, the TGI in the assay with KM12 colon is greater than 100 µM; with SK-MEL-28 melanoma, greater than 100 µM; in the assay with OVCAR-3 ovarian, greater than 100 µM; in the assay on TK-10 renal it was greater than 100 µM; with SF-295 CNS it was 14.8 µM; in the assay on COLO 205 colon, greater than 100 µM. Moreover, the TGI was greater than 100 µM in the assay with OVCAR-4 ovarian, 9.65 µM in the assay on SNB-19 CNS and 37 µM with OVCAR-8 ovarian.

In the case of `COC1=CC(=O)N(C(=O)[C@@H](OC(=O)[C@@H]2CCCN2C(=O)[C@@H]2CCCN2C(=O)[C@H](CC(C)C)N(C)C(=O)[C@@H](NC(=O)[C@@H](NC(=O)OCc2ccccc2)C(C)C)C(C)C)C(C)C)[C@H]1Cc1ccccc1` (Cbz-VV[NMeL]PP-X28), the TGI in the assay on KM12 colon, in the assay on SK-MEL-28 melanoma, in the assay with OVCAR-3 ovarian, in the assay with TK-10 renal, with SF-295 CNS and in the assay on COLO 205 colon was greater than 100 µM throughout. Also, the TGI with OVCAR-4 ovarian, with SNB-19 CNS and in the assay on OVCAR-8 ovarian was greater than 100 µM throughout.

With `CCOC(=O)CCc1c(C)c2c(O)cc(O)cc2oc1=O`, the TGI with KM12 colon, in the assay with SK-MEL-28 melanoma, with OVCAR-3 ovarian, in the assay with SF-295 CNS, with COLO 205 colon and in the assay with OVCAR-4 ovarian was greater than 100 µM each time. Moreover, the TGI with SNB-19 CNS and in the assay with OVCAR-8 ovarian was greater than 100 µM in each case.

Take `CNC(=O)C(NC(=O)[C@H](CC(C)C)NC(=O)[C@@H](S)CCN1C(=O)N(C)C(C)(C)C1=O)C(C)(C)C` (some centres not stated): the TGI in the assay on KM12 colon, with SK-MEL-28 melanoma, in the assay with TK-10 renal, with SF-295 CNS, in the assay on OVCAR-4 ovarian and with SR leukemia was greater than 100 µM throughout. The TGI in the assay on SNB-19 CNS and in the assay on OVCAR-8 ovarian was greater than 100 µM in each case.

With `COc1cc(C(c2cc(OC)c(OC)c(OC)c2)N2C(=O)CCC2C(=O)O)cc(OC)c1OC` (configuration not stated), the TGI in the assay with KM12 colon, with SK-MEL-28 melanoma, with OVCAR-3 ovarian, with SF-295 CNS, in the assay with COLO 205 colon and with OVCAR-4 ovarian was greater than 100 µM in each case. The TGI in the assay with SR leukemia, in the assay with SNB-19 CNS and in the assay on OVCAR-8 ovarian was greater than 100 µM in each case.

`CN(C)Cc1cc(C(=O)/C=C/c2c(F)cccc2Cl)cc(CN(C)C)c1O`: the TGI was determined as 30.4 µM with KM12 colon; 31.9 µM with SK-MEL-28 melanoma; 24.6 µM in the assay on OVCAR-3 ovarian; 15.7 µM in the assay with TK-10 renal; 25.4 µM in the assay on SF-295 CNS; 24.8 µM with COLO 205 colon. The figures for the TGI in the assay with OVCAR-4 ovarian, in the assay on SNB-19 CNS and in the assay with OVCAR-8 ovarian were 31 µM, 61.5 µM and 41.2 µM, respectively.
